Series [1] is described as follows: Body weight and systemic physiology monitoring during CSD testing. The class given is in vivo, Sprague-Dawley rats. The note with it: 100 mg/kg/day p.o. for 35 days. On the procedure:
Vehicle or Compound #8 was administered orally once a day for 35 days. On the last day of treatment, rats continued to receive food and water ad libitum, and were given their daily oral dose of vehicle or Compound #8 approximately 1.5 h prior to CSD testing. Rats were anesthetized using isoflurane and intubated via a tracheotomy for mechanical ventilation. Body temperature, blood pressure and heart rate were monitored throughout the procedure to ensure homeostasis. Rats were placed in a stereotaxic frame and three burr holes were drilled under saline cooling over the right hemisphere at the following coordinates (mm from bregma): (1) posterior 4.5, lateral 2.0 (occipital cortex): KCL application; (2) posterior 0.5, lateral 2.0 (parietal cortex): recording site 1; (3) anterior 2, lateral 2 (frontal cortex): recording site 2. Dura overlying the occipital cortex was gently removed. The steady (DC) potential and electrocorticogram (EcoG) were recorded with glass micropipettes filled with 200 mM NaCl, […] below the dural surface. An Ag/AgCl reference electrode was placed subcutaneously in the neck. Following surgical preparation, the cortex was allowed to recover for 30 minutes under saline irrigation. Cortical spreading depressions were initiated by placing a cotton ball soaked with 1M KCl on the pial surface. The number of KCL-induced CSDs was counted for 2 hours. Propagation speed was calculated from the distance (mm) between the recording electrodes 1 and 2, divided by the latency (min) between the CSDs recorded at these sites.

The test system of series [2] is KCl-induced cortical spreading depression. Briefly: KCl-induced cortical spreading depression (CSD) assay as model of migraine. The note with it: 100 mg/kg/day p.o. for 35 days. Type of series: in vivo, Sprague-Dawley rats. On the procedure: Cortical spreading depression (CSD) has been implicated in migraine and as a headache trigger, and can be evoked in experimental animals by electrical or chemical stimulation (Kunkler & Kraig, 2003; Lauritzen et al., 1982; Moskowitz, 1984).
Adult male Sprague-Dawley rats (250-600 g) were divided into two treatment groups: vehicle (0.5% methylcellulose; n=13) and Compound #8 (100 mg/kg/day, p.o.; n=7). Results were compared to historical positive controls with valproic acid at 200 mg/kg/day, i.p.
Vehicle or Compound #8 was administered orally once a day for 35 days. On the last day of treatment, rats continued to receive food and water ad libitum, and were given their daily oral dose of vehicle or Compound #8 approximately 1.5 h prior to CSD testing. Rats were anesthetized using isoflurane and intubated via a tracheotomy for mechanical ventilation. Body temperature, blood pressure and heart rate were monitored throughout the procedure to ensure homeostasis. […] The steady (DC) potential and electrocorticogram (EcoG) were recorded with glass micropipettes filled with 200 mM NaCl, […] below the dural surface. […] The number of KCL-induced CSDs was counted for 2 hours. Propagation speed was calculated from the distance (mm) between the recording electrodes 1 and 2, divided by the latency (min) between the CSDs recorded at these sites. […]

Series [3] has the same test system. The note with it: historical positive control, 200 mg/kg/day i.p. for 4 weeks; saline 18; p<0.05; cited from earlier work.

`CN(C)S(=O)(=O)NCC1COc2ccccc2O1` (racemic) [Compound #6, N-(2,3-Dihydro-benzo[1,4]dioxin-2-ylmethyl)-N′,N′ dimethylsulfamide] showed a melting point of 76 to 78 °C.

As for `CN(CC1COc2ccccc2O1)S(N)(=O)=O` (racemic) [Compound #7, N-(2,3-Dihydro-benzo[1,4]dioxin-2-ylmethyl)-N-methylsulfamide], the melting point is 97 to 98 °C.

Turning to `NS(=O)(=O)NC[C@H]1COc2cc(Cl)ccc2O1` [Compound #8, (2S)-(−)-N-(6-Chloro-2,3-dihydro-benzo[1,4]dioxin-2-ylmethyl)-sulfamide], the “Physiological monitoring, including arterial pH, pCO2, pO2 and blood pressure, versus vehicle” value in series [1] was “did not differ between the groups”. In addition, the “Systemic Physiology: pH (arterial)” value in series [1] (vehicle 7.44 ± 0) was determined as 7.42 ± 0.03. The “Systemic Physiology: pCO2” value in series [1] (vehicle 38 ± 3, in mmHg (unit assumed)) is 39 ± 3. For the same molecule, the “Systemic Physiology: BP” value in series [1] (vehicle 105 ± 14, in mmHg (unit assumed)) is 107 ± 18. Further, the “Systemic Physiology: pO2” value in series [1] (vehicle 162 ± 9, in mmHg (unit assumed)) is given as 157 ± 18. In addition, in series [1] (vehicle 401 ± 40), the Body weight is recorded as 418 ± 31 g. In series [2] (1M KCl topical, counted for 2 hours, vehicle 16 ± 3, p=0.12, not significant), the “CSDs (2 h) ≧ 5 mV (number of KCl-induced cortical spreading depressions)” value worked out at 14±3. Further, the “Propagation Speed” value in series [2] (vehicle 3.2 ± 1, p=0.06) is 2.7±0.4 mm/min.

Molecule `NS(=O)(=O)NCC1CCc2ccccc2O1` (centres unmarked) [Compound #10, Chroman-2-ylmethylsulfamide] had a melting point of 100 to 101 °C.

In turn, `NS(=O)(=O)NCCC1COc2ccccc2O1` (centres unmarked) [Compound #16, 2-(2,3-Dihydro-benzo[1,4]dioxin-2-yl)-ethylsulfamide] yielded a melting point of 101 to 103 °C.

Consider `NS(=O)(=O)NC[C@H]1COc2cc(Cl)c(Cl)cc2O1` [Compound #29, (2S)-(−)-N-(6,7 Dichloro-2,3-dihydro-benzo[1,4]dioxin-2-ylmethyl)-sulfamide], for which the melting point lay within 119 to 121 °C.

With `CCCC(CCC)C(=O)O` [valproate, valproic acid], the “number of cortical spreading depressions” value in series [3] is given as 14.

The values above are taken from US20120065257A1, “USE OF BENZO-FUSED HETEROCYLE SULFAMIDE DERIVATIVES FOR THE TREATMENT OF MIGRAINE” (priority 2006, published 2012).
